Data set [1] can be described thus: refractive index (Na D-line) (dimensionless). The conditions noted are these: 298 K; 101.33 kPa; Liquid; Standard Abbe refractometry.
For data set [2] the following is noted: 298 K; 101.33 kPa; Liquid; Vibrating tube method.

± gives the expanded uncertainty stated by the source.

What is called refractive index is a measure of how strongly the sample bends light. As usually defined, the mass density is the mass of a sample divided by its volume. On to `c1ccc(COCc2ccccc2)cc1` [dibenzyl ether], for which the refractive index in data set [1] is recorded as 1.56019 ± 0.00042. Besides, the mass density in data set [2] worked out at 1039.32 ± 0.4 kg/m3.
Regarding `CC(O)c1ccccc1` (stereo not drawn) [1-phenylethanol], the refractive index in data set [1] is 1.52467 ± 0.00042. For the same molecule, the mass density in data set [2] worked out at 1006.48 ± 0.38 kg/m3.
The like results for `CCCCC(=O)O` [pentanoic acid] were, in that order, 1.40718 ± 0.00042 and 935.04 ± 0.37 kg/m3.
Consider `Clc1ccccc1` [chlorobenzene], for which the refractive index in data set [1] is on record as 1.52165 ± 0.00042. Also, the mass density in data set [2] is given as 1101.08 ± 0.44 kg/m3.

The values above are taken from the NIST ThermoML archive (doi:10.1016/j.fluid.2016.01.050).
